Laboratory results published in ChEMBL document CHEMBL4261654, “Synthesis and in vitro antitumor activity of novel alkenyl derivatives of pyridoxine, bioisosteric analogs of feruloyl methane” (Bioorg Med Chem, 2018).
pIC50: −log10 of the molar value. One block for each molecule: values may come before it. Calls of active or inactive are those of the source. No cut-off for these calls is given here.

Assays:
[1] = Antioxidant activity assessed as ferric ion reducing activity at 20 to 320 umol after 20 mins by FRAP assay; format: functional
MCF7 [2] = experiment: Antiproliferative activity against human MCF7 cells after 72 hrs by MTT assay; format: functional, cell-based; details: MCF7, 72 h
HEK293 = experiment: Antiproliferative activity against human HEK293 cells after 72 hrs by MTT assay; format: cell-based; details: HEK293, 72 h
OVCAR-4 [3] = experiment: Potency index, ratio of compound IC50 to dehydrozingerone IC50 for antiproliferative activity against human OVCAR4 cells; format: functional
MDA-MB-231 [4] = experiment: Potency index, ratio of compound IC50 to dehydrozingerone IC50 for antiproliferative activity against human MDA-MB-231 cells; format: functional
A498 [5] = experiment: Potency index, ratio of compound IC50 to dehydrozingerone IC50 for antiproliferative activity against human A498 cells; format: functional
PC-3 [6] = experiment: Antiproliferative activity against human PC3 cells after 72 hrs by MTT assay; format: functional, cell-based; details: PC-3, 72 h
MCF7 [7] = experiment: Potency index, ratio of compound IC50 to dehydrozingerone IC50 for antiproliferative activity against human MCF7 cells; format: functional
SNB-19 [8] = experiment: Potency index, ratio of compound IC50 to dehydrozingerone IC50 for antiproliferative activity against human SNB19 cells; format: functional
PC-3 [9] = experiment: Potency index, ratio of compound IC50 to dehydrozingerone IC50 for antiproliferative activity against human PC3 cells; format: functional
HCT-116 [10] = experiment: Potency index, ratio of compound IC50 to dehydrozingerone IC50 for antiproliferative activity against human HCT116 cells; format: functional
A498 [11] = experiment: Antiproliferative activity against human A498 cells after 72 hrs by MTT assay; format: functional, cell-based; details: A498, 72 h
HCT-15 [12] = experiment: Potency index, ratio of compound IC50 to dehydrozingerone IC50 for antiproliferative activity against human HCT15 cells; format: functional
NCI-H322M [13] = experiment: Antiproliferative activity against human NCI-H322M cells after 72 hrs by MTT assay; format: functional, cell-based
[14] = Selectivity index, ratio of IC50 for HSF cells to IC50 for human MCF7 cells; format: toxicity; details: HSF cells versus MCF7 cells, read-out: Ratio IC50
HCT-15 [15] = experiment: Antiproliferative activity against human HCT15 cells after 72 hrs by MTT assay; format: functional, cell-based; details: HCT-15, 72 h
[16] = Antiproliferative activity against HSF cells after 72 hrs by MTT assay; format: cell-based; details: Homo sapiens
[17] = Ratio of compound IC50 to dehydrozingerone IC50 for antiproliferative activity against HSF cells; format: cell-based; details: human, read-out: Ratio IC50
MDA-MB-231 [18] = experiment: Antiproliferative activity against human MDA-MB-231 cells after 72 hrs by MTT assay; format: functional, cell-based; details: MDA-MB-231, 72 h
OVCAR-4 [19] = experiment: Antiproliferative activity against human OVCAR4 cells after 72 hrs by MTT assay; format: functional, cell-based; details: OVCAR-4, 72 h
NCI-H322M [20] = experiment: Potency index, ratio of compound IC50 to dehydrozingerone IC50 for antiproliferative activity against human NCI-H322M cells; format: functional
HCT-116 [21] = experiment: Antiproliferative activity against human HCT116 cells after 72 hrs by MTT assay; format: functional, cell-based; details: HCT-116, 72 h
M14 [22] = experiment: Antiproliferative activity against human M14 cells after 72 hrs by MTT assay; format: functional, cell-based; details: M14, 72 h
M14 [23] = experiment: Potency index, ratio of compound IC50 to dehydrozingerone IC50 for antiproliferative activity against human M14 cells; format: functional
SNB-19 [24] = experiment: Antiproliferative activity against human SNB19 cells after 72 hrs by MTT assay; format: functional, cell-based; details: SNB-19, 72 h

SMILES: COc1cc(/C=C/C(=O)CC(=O)/C=C/c2ccc(O)c(OC)c2)ccc1O
Activity [1]: Active

pIC50 (MCF7 [2]): 5.14
SMILES: CC(=O)/C=C/c1cnc(C)c2c1COC1(CCCC1)O2
pIC50 (HEK293): 4.77

pIC50 (MCF7 [2]): 5.41
pIC50 (PC-3 [6]): 5.06
pIC50 (NCI-H322M [13]): 4.97
pIC50 (HCT-15 [15]): 5.68
pIC50 (MDA-MB-231 [18]): 5.51
pIC50 (OVCAR-4 [19]): 4.63
pIC50 (HCT-116 [21]): 5.39
SMILES: CCC1OCc2c(/C=C/C(C)=O)cnc(C)c2O1 (stereo not given)
Ratio IC50 (OVCAR-4 [3]): 7 - 211
Ratio IC50 (MDA-MB-231 [4]): 7 - 211
Ratio IC50 (A498 [5]): 7 - 211
Ratio IC50 (MCF7 [7]): 7 - 211
Ratio IC50 (SNB-19 [8]): 7 - 211
Ratio IC50 (PC-3 [9]): 7 - 211
Ratio IC50 (HCT-116 [10]): 7 - 211
pIC50 (A498 [11]): 4.77
pIC50 (HEK293): 4.44
Activity [1]: inactive
Ratio IC50 (HCT-15 [12]): 7 - 211
selectivity ratio [14]: 4.8
pIC50 [16]: 4.72
selectivity ratio [17]: 7 to 211
Ratio IC50 (NCI-H322M [20]): 7 - 211
pIC50 (M14 [22]): 5.01
Ratio IC50 (M14 [23]): 7 - 211
pIC50 (SNB-19 [24]): 5.17

pIC50 (MCF7 [2]): 5.89
SMILES: CCCCC1OCc2c(/C=C/C(C)=O)cnc(C)c2O1 (stereo not given)
pIC50 (HEK293): 4.89
